Laboratory results taken from PubChem BioAssay AID2060343 (Molecular Pharmacology Branch, DTP, NCI, 2025).
Values joined by “and” are separate entries in the source; they are usually repeats but may differ in a detail not shown here. Equal entries are not always repeated.

System: 138582-337-R-J1-PDC spheroids with HUVEC/MSC, viability
Assay: Anticancer human tumor 138582-337-R-J1-PDC patient-derived Merkel cell tumor cell line growth inhibition [IpAb]
Conditions: for viability, T/C: stronger effect = lower value
Text: Combinatorial screen of targeted agents with ipatasertib and abemaciclib in multi-cell type tumor spheroids
A high-throughput screen of multi-cell type tumor spheroids was designed to identify active combinations of targeted small molecules and ipatasertib or abemaciclib. Complex spheroids include a stromal component modeled by human endothelial cells (HUVEC) and fibroblasts modeled by human mesenchymal stem cells (MSCs). The concentration ranges selected for each drug and investigational agent were based upon clinically achievable concentrations if the clinical Cmax of the agent was known.
Compounds. The drugs and investigational agents: ipatasertib (NSC767898), abemaciclib(NSC768073), selumetinib (NSC741078), trametinib (758246), adavosertib (NSC754352), everolimus (NSC733504), sapanisertib (NSC764658), vemurafenib (NSC761431), venetoclax (NSC766270), copanlisib (NSC809693), apelisib (NSC765974), palbociblib (NSC758247), vemurafenib (NSC761431), dabrafenib (NSC764134), ravoxertinib (NSC781343), BMS-387032 (NSC767048), sotorasib (NSC818433), talazoparib (NSC767125) and afursertib (NSC778305), were obtained from the National Cancer Institute (NCI) Developmental Therapeutics Program Chemical Repository. The FDA-approved anticancer drug set is available from the NCI Developmental Therapeutics Program. […] The stock solutions were prepared in dimethyl sulfoxide (DMSO, Sigma-Aldrich, St. Louis, MO, cat. D2650) at 800-fold the tested concentration and stored at -70 degrees C prior to their use. All drugs and investigational agents were tested over a range starting from a high concentration at or near the clinical Cmax and decreasing in half-log increments. If the clinical Cmax for an agent had not been determined, the highest concentration tested was 10 microM.
NCI60 Cell Culture. NCI60 cell lines were obtained from the NCI Developmental Therapeutics Program Tumor Repository. For each lot of cells, the Repository performed Applied Biosystems AmpFLSTR Identifiler testing with PCR amplification to confirm consistency with the published Identifier STR profile for each cell line. Cells were kept in continuous culture for no more than 20 passages. The optimal seeding densities for each of the cell lines at each time point assessed were determined prior to performing the concentration response studies. Briefly, the NCI60 human tumor lines were grown as monolayers in RPMI 1640 medium supplemented with 10% FBS and 2 mmol/L L-glutamine.
An additional 9 lines were from the NCI60 cell line panel including MDA-MB-231 breast carcinoma, MDA-MB-468 breast carcinoma, MCF7 breast carcinoma, Hs578T breast carcinoma, MALME-3M melanoma, SK-MEL-2 melanoma, SK-OV-3 ovarian carcinoma, DU-145 prostate carcinoma, PC-3 prostate carcinoma, all cell lines along with major genetic alterations are listed on Table 2. Pooled donor human umbilical vein endothelial cells (HUVEC, Lonza, cat. CC-2519) and human mesenchymal stem cells (hMSC, Lonza, cat. PT-2501) were purchased from Lonza (Walkersville, MD).
PDMR cell lines were grown in complete medium (DC medium): Dulbecco's modified Eagle's medium (DMEM)/F12 supplemented with 5% fetal bovine serum (FBS), 2 mM L-glutamine, 100 U/mL penicillin and 100 µg/ml streptomycin, 0.4 µg/ml hydrocortisone, 10 ng/ml epidermal growth factor (EGF) recombinant human protein, 24 µg/mL adenine, and 0.1 mg/mL primocin. During culture from frozen stock vials, PDMR cells were cultured in the same medium containing 10 µM Y-27632 (see Table 3). The PDCs were cultured in complete DMEM/F12 media without 10 microM Y-27632 dihydrochloride for at least two passages prior to the screen. The pooled donor HUVEC and hMSC were cultured in endothelial cell growth medium 2 (PromoCell, Heidelberg, Germany, cat. C-22011) and mesenchymal stem cell growth medium 2 (PromoCell, cat. C-28009), respectively. For all experiments, HUVEC and hMSC were used at passages </=5.
[…]
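Also: spheroids exposed to compounds for seven days.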
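For viability, T/C in this document: 100% = DMSO vehicle control viability.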

C=CC(=O)N1CCN(c2nc(=O)n(-c3c(C)ccnc3C(C)C)c3nc(-c4c(O)cccc4F)c(F)cc23)C(C)C1 (configuration not stated)
viability, T/C (compound 0.0316 µM): 101% and 99.3%
viability, T/C (compound 0.1 µM): 104% and 97%
viability, T/C (compound 0.316 µM): 113% and 121%
viability, T/C (compound 1 µM): 120% and 108%
viability, T/C (compound 3.16 µM): 149% and 144%
viability, T/C (compound 10 µM): 187% and 181%
IC50 (curve of compound): > 10000 nM

C=CCn1c(=O)c2cnc(Nc3ccc(N4CCN(C)CC4)cc3)nc2n1-c1cccc(C(C)(C)O)n1
viability, T/C (compound 0.0316 µM): 96.7% and 116%
viability, T/C (compound 0.1 µM): 93.5% and 103%
viability, T/C (compound 0.316 µM): 98.4% and 90.7%
viability, T/C (compound 1 µM): 102% and 89.4%
viability, T/C (compound 3.16 µM): 126% and 110%
viability, T/C (compound 10 µM): 137% and 139%
IC50 (curve of compound): > 10000 nM

CC(=O)c1c(C)c2cnc(Nc3ccc(N4CCNCC4)cn3)nc2n(C2CCCC2)c1=O
viability, T/C (compound 0.000949 µM): 95.6% and 98.8%
viability, T/C (compound 0.003 µM): 104% and 90.5%
viability, T/C (compound 0.00949 µM): 102% and 101%
viability, T/C (compound 0.03 µM): 93.2% and 87.6%
viability, T/C (compound 0.0949 µM): 94.9% and 92%
viability, T/C (compound 0.3 µM): 100% and 84.8%
IC50 (curve of compound): > 300 nM

CC(C)(C)c1cnc(CSc2cnc(NC(=O)C3CCNCC3)s2)o1
viability, T/C (compound 0.00949 µM): 110% and 99.4%
viability, T/C (compound 0.03 µM): 110% and 114%
viability, T/C (compound 0.0949 µM): 45.9% and 84.2%
viability, T/C (compound 0.3 µM): 0.46% and 0.83%
viability, T/C (compound 0.949 µM): 0.54% and 0.68%
viability, T/C (compound 3 µM): 0.61% and 0.65%
IC50 (curve of compound): 88.2 nM and 152 nM

CC(C)NCC(C(=O)N1CCN(c2ncnc3c2C(C)CC3O)CC1)c1ccc(Cl)cc1 (configuration not stated)
viability, T/C (compound 0.1 µM): 92.1% [middle of 13 runs]
viability, T/C (compound 0.316 µM): 79.9% [middle of 13 runs]
viability, T/C (compound 1 µM): 64.4% [middle of 13 runs]
viability, T/C (compound 3.16 µM): 53.1% [middle of 13 runs]
viability, T/C (compound 10 µM): 42.7% [middle of 13 runs]

CC(C)n1nc(-c2ccc3oc(N)nc3c2)c2c(N)ncnc21
viability, T/C (compound 0.000316 µM): 97% and 95%
viability, T/C (compound 0.001 µM): 90.5% and 88.2%
viability, T/C (compound 0.00316 µM): 82.9% and 83.9%
viability, T/C (compound 0.01 µM): 70% and 77.5%
viability, T/C (compound 0.0316 µM): 59.4% and 57.2%
viability, T/C (compound 0.1 µM): 39.2% and 46.5%
IC50 (curve of compound): 51.9 nM and 70.1 nM

CC1(C)CCC(CN2CCN(c3ccc(C(=O)NS(=O)(=O)c4ccc(NCC5CCOCC5)c([N+](=O)[O-])c4)c(Oc4cnc5[nH]ccc5c4)c3)CC2)=C(c2ccc(Cl)cc2)C1
viability, T/C (compound 0.0316 µM): 86% and 96.1%
viability, T/C (compound 0.1 µM): 83.1% and 79.8%
viability, T/C (compound 0.316 µM): 74.2% and 75.6%
viability, T/C (compound 1 µM): 80.1% and 87.6%
viability, T/C (compound 3.16 µM): 97% and 94.6%
viability, T/C (compound 10 µM): 78% and 68.1%
IC50 (curve of compound): > 10000 nM

CCCS(=O)(=O)Nc1ccc(F)c(C(=O)c2c[nH]c3ncc(-c4ccc(Cl)cc4)cc23)c1F
viability, T/C (compound 0.0316 µM): 96.5% and 102%
viability, T/C (compound 0.1 µM): 89.8% and 97.6%
viability, T/C (compound 0.316 µM): 101% and 98.8%
viability, T/C (compound 1 µM): 92.3% and 99%
viability, T/C (compound 3.16 µM): 115% and 116%
viability, T/C (compound 10 µM): 97.3% and 81.5%
IC50 (curve of compound): > 10000 nM

CCN1CCN(Cc2ccc(Nc3ncc(F)c(-c4cc(F)c5nc(C)n(C(C)C)c5c4)n3)nc2)CC1
viability, T/C (compound 0.01 µM): 96.6% [middle of 13 runs]
viability, T/C (compound 0.0316 µM): 90.6% [middle of 13 runs]
viability, T/C (compound 0.1 µM): 90.9% [middle of 13 runs]
viability, T/C (compound 0.316 µM): 90.5% [middle of 13 runs]
viability, T/C (compound 1 µM): 96.4% [middle of 13 runs]
IC50 (compound alone, run of 05/18/2021): > 1000 nM

COc1c(OCCCN2CCOCC2)ccc2c3n(c(=NC(=O)c4cnc(N)nc4)nc12)CCN3
viability, T/C (compound 0.00316 µM): 94.9% and 84.9%
viability, T/C (compound 0.01 µM): 71.2% and 75.9%
viability, T/C (compound 0.0316 µM): 53.5% and 58.3%
viability, T/C (compound 0.1 µM): 36.1% and 37.8%
viability, T/C (compound 0.316 µM): 17.5% and 18%
viability, T/C (compound 1 µM): 2.36% and 3.37%
IC50 (curve of compound): 39 nM and 51.2 nM
